PubChem BioAssay AID1117331
The source made the active and inactive calls. No rule for the calls is given here.

System: INS-1E rat insulinoma, insulin secretion, 5 mM glucose
Assay: dose-response inhibition of insulin secretion, INS-1E rat insulinoma line, 5 mM glucose, cell-based (AID 1117331)

Cc1ccc([N+](=O)[O-])[c]2c1[O][Hg]2
IC50: > 33.3 µM (inactive)
